Values quoted from earlier work in publication PMC12308805, “Ultrahigh-Throughput Virtual Screening Strategies against PPI Targets: A Case Study of STAT Inhibitors” (Journal of Chemical Information and Modeling, 2025).
Square brackets hold non-standard residues; d marks the D form. Peptide text beside a SMILES is read from it. * marks the point of attachment. d(pY) = N[C@H](Cc1ccc(OP(=O)(O)O)cc1)C(=O)O; pY = N[C@@H](Cc1ccc(OP(=O)(O)O)cc1)C(=O)O; aThr = C[C@H](O)[C@H](N)C(=O)O; Isobutyryl = CC(C)C(=O)*; Cbz = O=C(OCc1ccccc1)*

Tested on: STAT3
Details: cited from earlier work

With `CC(C)C[C@H](NC(=O)[C@H](Cc1ccc(OP(=O)(O)O)cc1)NC(=O)OCc1ccccc1)C(=O)N1CCC[C@H]1C(=O)N[C@@H](CCC(N)=O)C(=O)N[C@H](C(N)=O)[C@@H](C)O` [CHEMBL435121] (Cbz-[pY]LPQT-NH2) as the molecule, how does the “Type (known STAT3 active)” value read?
The value was “Active”.

For `CC(=O)N[C@@H](Cc1ccc(OP(=O)(O)O)cc1)C(=O)N[C@@H](CC(C)C)C(=O)N1CCC[C@H]1C(=O)N[C@@H](CCC(N)=O)C(=O)N[C@H](C(=O)N[C@H](C(N)=O)C(C)C)[C@H](C)O` [CHEMBL502473], which “Type (known STAT3 active)” value is on record?
The value was “Active”.

Which “Type (known STAT3 active)” value does the source give for `CC(=O)N[C@H](Cc1ccc(OP(=O)(O)O)cc1)C(=O)N[C@H](CC(C)C)C(=O)N1CCC[C@H]1C(=O)N[C@@H](CCC(N)=O)C(=O)N[C@@H](C)C(=O)N[C@H](C(N)=O)C(C)C` [CHEMBL156407] (Ac-[d(pY)][dL]PQAV-NH2) here?
Its value is “Active”.

Same assay, conditions: sheet 6QHD_actives_decoys, retrospective screening set for STAT3 SH2 domain (PDB 6QHD); decoys are presumed inactives, not tested; ref DUD-E; cited from earlier work

Which Type does the source give for `CCOC(=O)C1=C(CN2CCN(CC(=O)Nc3cccc(F)c3)CC2)NC(=O)N[C@@H]1CC` [Decoy866] here?
The Type was “Inactive (Decoy)”.

For `CC[C@@]1(c2ccccc2)NC(=O)N(CC(=O)Nc2ccc(S(=O)(=O)Nc3ncccn3)cc2)C1=O` [Decoy743], which Type is on record?
Its Type is “Inactive (Decoy)”.

Which Type does the source give for `C/C(=C(\CCO)SS/C(CCO)=C(\C)N(C=O)Cc1cnc(C)nc1N)N(C=O)Cc1cnc(C)nc1N` [Decoy781] here?
The Type was “Inactive (Decoy)”.

Which Type does the source give for `CCOC(=O)c1c(NC(=O)/C(O)=N/N=C/c2cn(-c3ccccc3)nc2-c2ccc(OC)cc2)sc2c1CCCC2` [Decoy838] here?
Its Type is “Inactive (Decoy)”.

For `CCCOc1ccc([C@@H]2c3c(n[nH]c3-c3cc(C)cc(C)c3O)C(=O)N2CCCOC(C)C)cc1OCC` [Decoy897], which Type is on record?
The Type was “Inactive (Decoy)”.

With `Cc1ccc(S(=O)(=O)Nc2ccc(N3CCN(CC(=O)NCC(C)C)CC3)cc2C(=O)O)cc1` [Decoy918] as the molecule, how does the Type read?
Its Type is “Inactive (Decoy)”.

With `C[C@H]1CN(S(=O)(=O)c2ccc(C(=O)Nc3ccc(S(=O)(=O)Nc4nccs4)cc3)cc2)C[C@H](C)O1` [Decoy868] as the molecule, how does the Type read?
The Type was “Inactive (Decoy)”.

Which Type does the source give for `CCCOC(=O)c1ccc(OCC(=O)N/N=C(/S)NC(=O)c2ccccc2[N+](=O)[O-])cc1` [Decoy731] here?
Its Type is “Inactive (Decoy)”.

Which Type does the source give for `N[C@@H](CCC(=O)N[C@@H](CSCCN(CCSC[C@H](NC(=O)CC[C@H](N)C(=O)O)C(=O)NCC(=O)O)[P@](N)(=O)O)C(=O)NCC(=O)O)C(=O)O` [Decoy879] here?
The Type was “Inactive (Decoy)”.

With `OC[C@@H]1O[C@H](O[C@H]2O[C@H](CO)[C@H](O)[C@H](OCc3ccccc3)[C@@H]2OCc2ccccc2)[C@H](OCc2ccccc2)[C@H](OCc2ccccc2)[C@@H]1O` [Decoy949] as the molecule, how does the Type read?
Its Type is “Inactive (Decoy)”.

For `CSCC[C@@H](NC(=O)[C@H](N)Cc1ccc(O)cc1)C(=O)N[C@H](Cc1ccccc1)C(=O)N[C@H](Cc1c[nH]cn1)C(=O)N[C@@H](CC(C)C)C(=O)N[C@H](CCSC)C(=O)N[C@@H](CC(=O)O)C(N)=O` [Decoy814] (H-[dY][dM][dF][dH]L[dM]D-NH2), which Type is on record?
The Type was “Inactive (Decoy)”.

For `CCC(CC)C(=O)Nc1cccc(C(=O)Nc2ccc(S(=O)(=O)Nc3nccc(C)n3)cc2)c1` [Decoy917], which Type is on record?
The Type was “Inactive (Decoy)”.

For `CNC(=O)[C@H](CC(C)C)NC(=O)[C@H](Cc1c[nH]cn1)NC(=O)[C@@H](C)NC(=O)[C@@H](NC(=O)[C@H](C)NC(=O)[C@H](Cc1c[nH]c2ccccc12)NC(=O)[C@H](Cc1c[nH]cn1)NC(=O)C(C)C)C(C)C` [Decoy804] (Isobutyryl-HWAV[dA]HL-NHMe), which Type is on record?
Its Type is “Inactive (Decoy)”.

For `CC[C@H](C)[C@H](O)C(=O)O[C@H](C(=O)O[C@H](C(=O)OC[C@@H](O)[C@@H](O)[C@@H](O)[C@@H](O)CO)[C@@H](C)CC)[C@@H](C)CC` [Decoy860], which Type is on record?
Its Type is “Inactive (Decoy)”.

With `CCn1cc([C@@H](C)NC(=S)Nc2ccc(S(=O)(=O)Nc3ncccn3)cc2)c(C)n1` [Decoy919] as the molecule, how does the Type read?
The Type was “Inactive (Decoy)”.

Which Type does the source give for `CCOC(=O)[C@@H]1[C@@H](C(=O)OCC)[C@H]2/C(=N\NS(=O)(=O)c3ccc(C)cc3)[C@H]3[C@@H](C(=O)OCC)[C@@H](C(=O)OCC)[C@@H]3/C(=N\NS(=O)(=O)c3ccc(C)cc3)[C@@H]12` [Decoy764] here?
Its Type is “Inactive (Decoy)”.

Which Type does the source give for `CC(=O)OC[C@H]1O[C@@H](Oc2cc(O)cc(O)c2C(=O)CCc2ccc([N+](=O)[O-])cc2)[C@@H](OC(C)=O)[C@H](OC(C)=O)[C@H]1OC(C)=O` [Decoy881] here?
The Type was “Inactive (Decoy)”.

With `CC(C)COC(=O)c1ccc(Nc2ncnc(NNC(=O)Cc3ccc([N+](=O)[O-])cc3)c2[N+](=O)[O-])cc1` [Decoy822] as the molecule, how does the Type read?
The Type was “Inactive (Decoy)”.

For `C[C@H](CCC(=O)NCCS(=O)(=O)O)[C@H]1CC[C@H]2[C@H]3[C@H](O)C[C@@H]4C[C@H](OS(=O)(=O)O)CC[C@]4(C)[C@H]3C[C@H](O)[C@]12C` [Decoy830], which Type is on record?
Its Type is “Inactive (Decoy)”.

Same assay, conditions: sheet 6QHD_actives_decoys; known STAT3 actives of the retrospective screening set; ref ChEMBL / literature; cited from earlier work

For `C1=Cc2nc1cc1ccc([nH]1)c(-c1ccccc1)c1nc(cc3ccc([nH]3)c2-c2ccccc2)C=C1` [CHEMBL207155], which “Type (known STAT3 active)” value is on record?
The value was “Active”.

For `CNC(=O)[C@H](CCC(N)=O)NC(=O)[C@@H]1CCCN1C(=O)[C@H](CC(C)C)NC(=O)[C@H](Cc1ccc(OP(=O)(O)O)cc1)NC(C)=O` [CHEMBL370095] (Ac-[pY]LPQ-NHMe), which “Type (known STAT3 active)” value is on record?
The value was “Active”.

For `CC(C)C[C@H](NC(=O)/C=C/c1ccc(OP(=O)(O)O)cc1)C(=O)N1CCC[C@H]1C(=O)N[C@@H](COC(N)=O)C(=O)NCc1ccccc1` [CHEMBL414034], which “Type (known STAT3 active)” value is on record?
The value was “Active”.

For `CC(C)C[C@H](NC(=O)[C@H](Cc1ccc(O)cc1)NC(=O)[C@H]1CCCN1C(=O)CN)C(=O)N1CCC[C@H]1C(=O)N[C@@H](CCC(N)=O)C(=O)N[C@H](C(=O)N[C@H](C(N)=O)C(C)C)[C@H](C)O` [CHEMBL2367507] (H-G[dP]YLPQ[aThr]V-NH2), which “Type (known STAT3 active)” value is on record?
The value was “Active”.

Which “Type (known STAT3 active)” value does the source give for `NC(=O)CC[C@H](NC(=O)[C@@H]1Cc2cccc3c2N1C(=O)[C@@H](NC(=O)/C=C/c1ccc(OP(=O)(O)O)cc1)CC3)C(N)=O` [CHEMBL449511] here?
Its value is “Active”.

For `CC(C)C[C@H](NC(=O)/C=C/c1ccc(OP(=O)(O)O)cc1)C(=O)N1CCC[C@H]1C(=O)N[C@@H](CCC(N)=O)COCc1ccccc1` [CHEMBL573904], which “Type (known STAT3 active)” value is on record?
Its value is “Active”.

Same assay, conditions: sheet 6QHD_actives_decoys; retrospective screening set for STAT3 SH2 domain (PDB 6QHD); […]; ref DUD-E; cited from earlier work

With `Nc1n(-c2ccccc2)c(=O)c(C(c2ccc([N+](=O)[O-])cc2)c2c([O-])[n+](-c3ccccc3)c(N)n(-c3ccccc3)c2=O)c([O-])[n+]1-c1ccccc1` [Decoy514] as the molecule, how does the Type read?
Its Type is “Inactive (Decoy)”.

With `COC1=C[C@]23CCCN2CCc2cc4c(cc2[C@@H]3[C@@H]1OC(=O)[C@@](O)(CCCC(C)(C)O)CC(=O)O)OCO4` [Decoy432] as the molecule, how does the Type read?
Its Type is “Inactive (Decoy)”.

With `Cc1nccc(NS(=O)(=O)c2ccc(NC(=O)c3cccc(C(=O)Nc4ccc(S(=O)(=O)Nc5ccnc(C)n5)cc4)c3)cc2)n1` [Decoy361] as the molecule, how does the Type read?
Its Type is “Inactive (Decoy)”.

For `O=c1c(C[C@@H](O)CN2CCOCC2)c(O)n(C[C@H](O)CN2CCOCC2)c(=O)n1C[C@H](O)CN1CCOCC1` [Decoy567], which Type is on record?
Its Type is “Inactive (Decoy)”.

With `CCCNC(=O)CN1CCN(c2cc(C(=O)O)c3cc(NS(=O)(=O)c4cccc(C)c4)ccc3n2)CC1` [Decoy646] as the molecule, how does the Type read?
The Type was “Inactive (Decoy)”.

Same assay, conditions: sheet 6QHD_actives_decoys; retrospective screening set for STAT3 SH2 domain (PDB 6QHD); decoys generated with DUD-E and presumed inactive, not tested; ref DUD-E; cited from earlier work

For `CCCCCCCCCCC/C=C/C(=O)N[C@@H]1[C@@H](O[C@H]2O[C@@H](CO)[C@@H](O)[C@@H](O)[C@H]2NC(C)=O)O[C@@H](C[C@H](O)[C@H]2O[C@@H](n3ccc(=O)[nH]c3=O)[C@@H](O)[C@H]2O)[C@@H](O)[C@H]1O` [Decoy558], which Type is on record?
Its Type is “Inactive (Decoy)”.

Which Type does the source give for `COCCN(C(=O)COc1cc(Cl)c(Cl)cc1Cl)c1c(N)n(CC(C)C)c(=O)[nH]c1=O` [Decoy712] here?
Its Type is “Inactive (Decoy)”.

Which Type does the source give for `COC(=O)[C@@H]1O[C@H](OC/C(=N/NC(N)=O)[C@@]2(O)CC[C@@H]3[C@@H]4CC[C@H]5C[C@H](OC(C)=O)CC[C@@]5(C)[C@H]4C(=O)C[C@]32C)[C@@H](OC(C)=O)[C@H](OC(C)=O)[C@H]1OC(C)=O` [Decoy340] here?
The Type was “Inactive (Decoy)”.

For `Cn1c(CNc2ccc(C(=N)N)cc2)nc2cc(C(=O)N(CCC(=O)O[C@@H]3O[C@H](C(=O)O)[C@@H](O)[C@H](O)[C@H]3O)c3ccccn3)ccc21` [Decoy516], which Type is on record?
The Type was “Inactive (Decoy)”.

Which Type does the source give for `NS(=O)(=O)c1ccc(CCNC(=O)CCCCCn2c(=S)[nH]c3ccc(N4CCOCC4)cc3c2=O)cc1` [Decoy490] here?
Its Type is “Inactive (Decoy)”.

Which Type does the source give for `C=CCn1c(CNc2ccc(C)cc2)nnc1SCCC(=O)Nc1sc(C(=O)OCC)c(C)c1C#N` [Decoy508] here?
The Type was “Inactive (Decoy)”.

Which Type does the source give for `Cc1ccc(S(=O)(=O)n2cc(/C=N\N=C3/NC(=O)[C@H](CC(=O)O)S3)c3ccccc32)cc1` [Decoy683] here?
Its Type is “Inactive (Decoy)”.

For `COc1ccc(-c2cc(=O)c3c(O)c(OC)c(O[C@@H]4O[C@H](CO[C@@H]5O[C@@H](C)[C@H](O)[C@@H](O)[C@H]5O)[C@@H](O)[C@H](O)[C@H]4O)cc3o2)cc1` [Decoy661], which Type is on record?
The Type was “Inactive (Decoy)”.

Which Type does the source give for `COC(=O)c1ccc(NC(=O)CSc2nn3c(SCC(=O)Nc4ccc(C(=O)OC)cc4)nnc3s2)cc1` [Decoy625] here?
Its Type is “Inactive (Decoy)”.

With `COC1=C(S[C@@H]2O[C@H](COC(C)=O)[C@@H](OC(C)=O)[C@H](OC(C)=O)[C@H]2OC(C)=O)C(=O)c2c(O)ccc(O)c2C1=O` [Decoy719] as the molecule, how does the Type read?
Its Type is “Inactive (Decoy)”.

Which Type does the source give for `COCCN(CCOC)S(=O)(=O)c1ccc(C(=O)Nc2sccc2C(=O)NN(C)C)cc1` [Decoy623] here?
The Type was “Inactive (Decoy)”.

With `Nn1c(SCC(=O)N/N=C/c2ccccc2OCc2ccccc2Cl)nnc1-c1ccncc1` [Decoy718] as the molecule, how does the Type read?
Its Type is “Inactive (Decoy)”.

With `CCCCCCCCCC(=O)O[C@@H]1[C@@H](O[C@@]2(CO)O[C@@H](CO)[C@@H](O)[C@H]2OC(=O)C(C)C)O[C@@H](CO)[C@@H](OC(=O)C(C)C)[C@H]1OC(=O)C(C)C` [Decoy627] as the molecule, how does the Type read?
The Type was “Inactive (Decoy)”.

For `Cc1cc(NS(=O)(=O)c2ccc(NC(=O)CCC(=O)Nc3ccc(S(=O)(=O)Nc4cc(C)on4)cc3)cc2)no1` [Decoy702], which Type is on record?
Its Type is “Inactive (Decoy)”.

With `O=C(CSc1n[nH]c(N/N=C/c2cc(Cl)ccc2O)n1)NNC(=O)c1ccc(Cl)cc1` [Decoy591] as the molecule, how does the Type read?
Its Type is “Inactive (Decoy)”.

With `Cc1ccc(Nc2cc(C)nc3cc(C(F)(F)F)ccc23)c(Br)c1` [Decoy563] as the molecule, how does the Type read?
The Type was “Inactive (Decoy)”.
